These results are taken from ChEMBL document CHEMBL4765467, “Improving Thermodynamic Stability and Anticoagulant Activity of a Thrombin Binding Aptamer by Incorporation of 8-trifluoromethyl-2'-deoxyguanosine” (J Med Chem, 2021).

Activity calls are given as the source filed them. The rule behind the calls is not given here.

A short description of series [1]: Thermodynamic stability assessed as change in melting temperature by CD spectroscopy relative to TBA. The class given is physicochemical.
Series [2] is described as follows: Stability in 50% human plasma assessed as compound degradation at 50 uM measured within 3 hrs by PAGE analysis. The class given is ADME, cell-free.
Series [3] has as its system Plasma. The experiment in a line: Anticoagulant activity in human plasma assessed prothrombin time at 0.25 to 1 uM. Particulars: dose 0.25-1 µM. The class given is functional.
Series [4] has as its system Plasma. The series can be described thus: Anticoagulant activity in human plasma assessed prothrombin time in presence of 1.5 fold complementary sequence of TBA. The class given is functional, cell-free.
The nature of series [5]: Stability in 50% human plasma assessed as compound degradation at 50 uM measured within 3 hrs by PAGE analysis relative to TBA. The class given is ADME, cell-free.
The subject of series [6] is Plasma. The experiment in a line: Anticoagulant activity in human plasma assessed prothrombin time in presence of complementary sequence of TBA. The class given is functional, cell-free.

With `Cc1cn([C@H]2C[C@H](OP(=O)(O)OC[C@H]3O[C@@H](n4c(C(F)(F)F)nc5c(=O)[nH]c(N)nc54)C[C@@H]3OP(=O)(O)OC[C@H]3O[C@@H](n4cnc5c(=O)[nH]c(N)nc54)C[C@@H]3OP(=O)(O)OC[C@H]3O[C@@H](n4cc(C)c(=O)[nH]c4=O)C[C@@H]3OP(=O)(O)OC[C@H]3O[C@@H](n4cnc5c(=O)[nH]c(N)nc54)C[C@@H]3OP(=O)(O)OC[C@H]3O[C@@H](n4cc(C)c(=O)[nH]c4=O)C[C@@H]3OP(=O)(O)OC[C@H]3O[C@@H](n4c(C(F)(F)F)nc5c(=O)[nH]c(N)nc54)C[C@@H]3OP(=O)(O)OC[C@H]3O[C@@H](n4cnc5c(=O)[nH]c(N)nc54)C[C@@H]3OP(=O)(O)OC[C@H]3O[C@@H](n4cc(C)c(=O)[nH]c4=O)C[C@@H]3OP(=O)(O)OC[C@H]3O[C@@H](n4cc(C)c(=O)[nH]c4=O)C[C@@H]3OP(=O)(O)OC[C@H]3O[C@@H](n4c(C(F)(F)F)nc5c(=O)[nH]c(N)nc54)C[C@@H]3OP(=O)(O)OC[C@H]3O[C@@H](n4cnc5c(=O)[nH]c(N)nc54)C[C@@H]3O)[C@@H](COP(=O)(O)O[C@H]3C[C@H](n4cc(C)c(=O)[nH]c4=O)O[C@@H]3COP(=O)(O)O[C@H]3C[C@H](n4cnc5c(=O)[nH]c(N)nc54)O[C@@H]3COP(=O)(O)O[C@H]3C[C@H](n4c(C(F)(F)F)nc5c(=O)[nH]c(N)nc54)O[C@@H]3COP(=O)(O)O)O2)c(=O)[nH]c1=O`, the deltaTm in series [1] amounted to 30 °C. The figures for the Stabilty result in series [2] and in series [5] were “Unstable” and “Stable”, respectively. The same compound showed a PT with Plasma [3] of 18.6 s. Moreover, the outcome in the series on Plasma [4] was Active.
Regarding `Cc1cn([C@H]2C[C@H](OP(=O)(O)OC[C@H]3O[C@@H](n4cnc5c(=O)[nH]c(N)nc54)C[C@@H]3OP(=O)(O)OC[C@H]3O[C@@H](n4cc(C)c(=O)[nH]c4=O)C[C@@H]3OP(=O)(O)OC[C@H]3O[C@@H](n4cnc5c(=O)[nH]c(N)nc54)C[C@@H]3OP(=O)(O)OC[C@H]3O[C@@H](n4cnc5c(=O)[nH]c(N)nc54)C[C@@H]3OP(=O)(O)OC[C@H]3O[C@@H](n4cc(C)c(=O)[nH]c4=O)C[C@@H]3OP(=O)(O)OC[C@H]3O[C@@H](n4cc(C)c(=O)[nH]c4=O)C[C@@H]3OP(=O)(O)OC[C@H]3O[C@@H](n4cnc5c(=O)[nH]c(N)nc54)C[C@@H]3OP(=O)(O)OC[C@H]3O[C@@H](n4cnc5c(=O)[nH]c(N)nc54)C[C@@H]3O)[C@@H](COP(=O)(O)O[C@H]3C[C@H](n4cc(C)c(=O)[nH]c4=O)O[C@@H]3COP(=O)(O)O[C@H]3C[C@H](n4cnc5c(=O)[nH]c(N)nc54)O[C@@H]3COP(=O)(O)O[C@H]3C[C@H](n4cnc5c(=O)[nH]c(N)nc54)O[C@@H]3COP(=O)(O)O[C@H]3C[C@H](n4cc(C)c(=O)[nH]c4=O)O[C@@H]3COP(=O)(O)O[C@H]3C[C@H](n4cc(C)c(=O)[nH]c4=O)O[C@@H]3COP(=O)(O)O[C@H]3C[C@H](n4cnc5c(=O)[nH]c(N)nc54)O[C@@H]3COP(=O)(O)O[C@H]3C[C@H](n4cnc5c(=O)[nH]c(N)nc54)O[C@@H]3COP(=O)(O)O)O2)c(=O)[nH]c1=O`, the outcome with Plasma [6] and in the series with Plasma [4] was inactive. Further, the Stabilty result in series [2] was “Stable”. The compound also came in with a PT in the series with Plasma [3] of 19.2 s.
